EP4603105A1, “PHARMACEUTICAL COMPOSITION CONTAINING CYCLIC COMPOUND HAVING SELECTIVE KRAS INHIBITORY EFFECT AGAINST HRAS AND NRAS” (CHUGAI SEIYAKU KABUSHIKI KAISHA, priority 2022, dated 2024)

Tests used:
[1] = target: GDP-bound NRAS wild-type protein (Homo sapiens, UniProt P01111); test: Binding to NRAS by surface plasmon resonance (SPR), KD and KD ratio to KRAS; details: ratio of KD with respect to GDP-bound NRAS wild-type protein to KD with respect to KRAS
Procedure, shortened: (§1)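 Measured at 30°C: SPR with GDP-loaded, E. coli-expressed biotin-Avi RAS captured (~100–300 RU), ascending 75 s compound injections, HBS pH 7.4 with GDP, MgCl2, 4% DMSO. KD from 1:1 fit.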

[2] = tested on: human lung cancer strain NCI-H441; test: NCI-H441 cell proliferation inhibitory activity (CellTiter-Glo, 4 days); type: cell-based; details: 50% proliferation inhibitory concentration, four days, read-out: NCl-H441 IC50
Procedure, shortened: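 Signal came from […] measured per well once the reagent was added. Beforehand, cells were cultured at 37°C and 5% carbon dioxide on a compound series serially diluted in dimethyl sulfoxide.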

[3] = target: GDP-bound KRAS wild-type protein (Homo sapiens, UniProt P01116); test: Binding to KRAS by surface plasmon resonance (SPR), dissociation constant KD; details: Single Cycle Kinetics, 1:1 binding model
GDP-bound KRAS wild-type protein, sequence (P01116 1-188 isoform P01116-2): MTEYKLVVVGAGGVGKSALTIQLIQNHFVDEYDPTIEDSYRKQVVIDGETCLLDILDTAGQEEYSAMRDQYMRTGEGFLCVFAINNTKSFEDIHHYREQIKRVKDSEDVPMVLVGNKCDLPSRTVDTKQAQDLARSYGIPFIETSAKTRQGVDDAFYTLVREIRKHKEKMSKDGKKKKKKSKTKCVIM
Procedure, shortened: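 SPR, 30°C: Avi-biotin RAS·GDP captured via Biotin CAPture (~100–300 RU); running buffer HBS pH 7.4, 1 mM DTT, 10 mM MgCl2, 0.01% Tween 20, 10 µM GDP, 4% DMSO. Single-cycle kinetics, 100 µL/min, 75 s injections; 1:1 model → KD.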

HRAS wild-type protein = HRAS wild-type protein (Homo sapiens, UniProt P01112); test: Binding to HRAS by surface plasmon resonance (SPR), KD and KD ratio to KRAS; details: ratio of KD with respect to HRAS wild-type protein to KD with respect to KRAS
HRAS wild-type protein, sequence (P01112 whole entry): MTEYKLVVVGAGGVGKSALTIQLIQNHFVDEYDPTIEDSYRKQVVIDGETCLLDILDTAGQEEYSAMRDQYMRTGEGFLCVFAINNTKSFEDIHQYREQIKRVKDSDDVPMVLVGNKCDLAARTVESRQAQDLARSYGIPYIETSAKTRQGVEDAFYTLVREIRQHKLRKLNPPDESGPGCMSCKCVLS
Procedure, shortened: as §1

GDP-bound NRAS wild-type protein, sequence (P01111 whole entry): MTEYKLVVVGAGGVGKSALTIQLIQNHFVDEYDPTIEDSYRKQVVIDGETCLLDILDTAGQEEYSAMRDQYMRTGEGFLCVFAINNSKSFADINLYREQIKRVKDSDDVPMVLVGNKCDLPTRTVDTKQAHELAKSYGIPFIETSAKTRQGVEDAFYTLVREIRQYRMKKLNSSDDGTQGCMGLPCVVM

SMILES | IC50 [2] [nM] | Kd [3] [nM] | NRAS /KRAS [1] | HRAS /KRAS (HRAS wild-type protein)
CCO[C@@H]1C[C@H]2C(=O)NC3(CCC3)C(=O)N(C)[C@@H](C(CC)CC)C(=O)N(C)[C@H](C(=O)N(C)C)CC(=O)N(C)[C@@H](CC)C(=O)N[C@@H]([C@@H](C)CC)C(=O)N(C)CC(=O)N(C)[C@H]3C/C=C\CCN(C3=O)[C@@H](Cc3ccc(C(F)(F)F)cc3)C(=O)N(C)CC(=O)N[C@@H](CCc3ccc(C(F)(F)F)c(OC)c3)C(=O)N2C1 [PP1207] | 29.9 | 0.21 | AA (a compound having 20 or more is denoted as AA) | A (a compound having 10 or more and less than 20 is denoted as A)
CCO[C@@H]1C[C@H]2C(=O)NC3(CCC3)C(=O)N(C)[C@@H](C(CC)CC)C(=O)N(C)[C@H](C(=O)N(C)C)CC(=O)N(C)[C@@H](CC3CCCC3)C(=O)N[C@@H]([C@@H](C)CC)C(=O)N(C)CC(=O)N(C)[C@H]3C/C=C\CCN(C3=O)[C@@H](Cc3ccc(C(F)(F)F)cc3)C(=O)N(C)CC(=O)N[C@@H](CCc3ccc(C(F)(F)F)c(OC)c3)C(=O)N2C1 [PP1212] | 35.6 | 0.28 | AA (a compound having 20 or more is denoted as AA) | A (a compound having 10 or more and less than 20 is denoted as A)
CCO[C@@H]1C[C@H]2C(=O)NC3(CCC3)C(=O)N(C)[C@@H](C(CC)CC)C(=O)N(C)[C@H](C(=O)N(C)C)CC(=O)N(C)[C@@H](C)C(=O)N[C@@H]([C@@H](C)CC)C(=O)N(C)CC(=O)N(C)[C@H]3C/C=C\CCN(C3=O)[C@@H](Cc3ccc(C(F)(F)F)cc3)C(=O)N(C)CC(=O)N[C@@H](CCc3ccc(Cl)c(Cl)c3)C(=O)N2C1 [PP1214] | 93.4 | 0.34 | AA (a compound having 20 or more is denoted as AA) | A (a compound having 10 or more and less than 20 is denoted as A)
CCO[C@@H]1C[C@H]2C(=O)NC3(CCC3)C(=O)N(C)[C@@H](C(CC)CC)C(=O)N(C)[C@H](C(=O)N(C)C)CC(=O)N(C)[C@@H](CC)C(=O)N[C@@H]([C@@H](C)CC)C(=O)N(C)CC(=O)N(C)[C@H]3C/C=C\CCN(C3=O)[C@@H](Cc3ccc(C(F)(F)F)cc3)C(=O)N(C)CC(=O)N[C@@H](CCc3ccc(Cl)c(Cl)c3)C(=O)N2C1 [PP1215] | 33.4 | 0.42 | AA (a compound having 20 or more is denoted as AA) | A (a compound having 10 or more and less than 20 is denoted as A)
CCCCCC[C@H]1C(=O)N[C@@H]([C@@H](C)CC)C(=O)N(C)CC(=O)N(C)[C@H]2C/C=C\CCN(C2=O)[C@@H](Cc2ccc(C(F)(F)F)cc2)C(=O)N(C)CC(=O)N[C@@H](CCc2ccc(Cl)c(Cl)c2)C(=O)N2C[C@H](OCC)C[C@H]2C(=O)NC2(CCC2)C(=O)N(C)[C@@H](C(CC)CC)C(=O)N(C)[C@H](C(=O)N(C)C)CC(=O)N1C [PP1218] | 67.9 | 0.88 | AA (a compound having 20 or more is denoted as AA) | A (a compound having 10 or more and less than 20 is denoted as A)
CCO[C@@H]1C[C@H]2C(=O)NC3(CCC3)C(=O)N(C)[C@@H](C(CC)CC)C(=O)N(C)[C@H](C(=O)N(C)C)CC(=O)N(C)[C@@H](COC)C(=O)N[C@@H]([C@@H](C)CC)C(=O)N(C)CC(=O)N(C)[C@H]3C/C=C\CCN(C3=O)[C@@H](Cc3ccc(C(F)(F)F)cc3)C(=O)N(C)CC(=O)N[C@@H](CCc3ccc(Cl)c(Cl)c3)C(=O)N2C1 [PP1221] | 40.6 | 0.4 | AA (a compound having 20 or more is denoted as AA) | A (a compound having 10 or more and less than 20 is denoted as A)
CCO[C@@H]1C[C@H]2C(=O)NC3(CCC3)C(=O)N(C)[C@@H](C(CC)CC)C(=O)N(C)[C@H](C(=O)N(C)C)CC(=O)N(C)[C@@H](C)C(=O)N[C@@H]([C@@H](C)CC)C(=O)N(C)CC(=O)N(C)[C@H]3C/C=C\CCN(C3=O)[C@@H](Cc3ccc(C(F)(F)F)cc3)C(=O)N(C)CC(=O)N[C@@H](CCc3ccc4sccc4c3)C(=O)N2C1 [PP1222] | 301 | 1.2 | A (a compound having 10 or more and less than 20 is denoted as A) | A (a compound having 10 or more and less than 20 is denoted as A)
CCO[C@@H]1C[C@H]2C(=O)NC3(CCC3)C(=O)N(C)[C@@H](C(CC)CC)C(=O)N(C)[C@H](C(=O)N(C)C)CC(=O)N(C)[C@@H](CC)C(=O)N[C@@H]([C@@H](C)CC)C(=O)N(C)CC(=O)N(C)[C@H]3C/C=C\CCN(C3=O)[C@@H](Cc3ccc(C(F)(F)F)cc3)C(=O)N(C)CC(=O)N[C@@H](CCc3ccc4sccc4c3)C(=O)N2C1 [PP1223] | 117 | 1.2 | AA (a compound having 20 or more is denoted as AA) | A (a compound having 10 or more and less than 20 is denoted as A)
CCO[C@@H]1C[C@H]2C(=O)NC3(CCC3)C(=O)N(C)[C@@H](C(CC)CC)C(=O)N(C)[C@H](C(=O)N(C)C)CC(=O)N(C)[C@@H](CC(C)C)C(=O)N[C@@H]([C@@H](C)CC)C(=O)N(C)CC(=O)N(C)[C@H]3C/C=C\CCN(C3=O)[C@@H](Cc3ccc(C(F)(F)F)cc3)C(=O)N(C)CC(=O)N[C@@H](CCc3ccc4sccc4c3)C(=O)N2C1 [PP1225] | 92.5 | 1.1 | AA (a compound having 20 or more is denoted as AA) | A (a compound having 10 or more and less than 20 is denoted as A)

These reach a lower IC50 [2]. Values come first.

IC50 [2] [nM] | Kd [3] [nM] | SMILES | NRAS /KRAS [1] | HRAS /KRAS (HRAS wild-type protein)
26.8 | 0.27 | CCO[C@@H]1C[C@H]2C(=O)NC3(CCC3)C(=O)N(C)[C@@H](C(CC)CC)C(=O)N(C)[C@H](C(=O)N(C)C)CC(=O)N(C)[C@@H](CC3CC3)C(=O)N[C@@H]([C@@H](C)CC)C(=O)N(C)CC(=O)N(C)[C@H]3C/C=C\CCN(C3=O)[C@@H](Cc3ccc(C(F)(F)F)cc3)C(=O)N(C)CC(=O)N[C@@H](CCc3ccc(C(F)(F)F)c(OC)c3)C(=O)N2C1 [PP1211] | A (a compound having 10 or more and less than 20 is denoted as A) | B (a compound having 3 or more and less than 10 is denoted as B)
24.4 | 0.17 | CCC[C@H]1C(=O)N[C@@H]([C@@H](C)CC)C(=O)N(C)CC(=O)N(C)[C@H]2C/C=C\CCN(C2=O)[C@@H](Cc2ccc(C(F)(F)F)cc2)C(=O)N(C)CC(=O)N[C@@H](CCc2ccc(C(F)(F)F)c(OC)c2)C(=O)N2C[C@H](OCC)C[C@H]2C(=O)NC2(CCC2)C(=O)N(C)[C@@H](C(CC)CC)C(=O)N(C)[C@H](C(=O)N(C)C)CC(=O)N1C [PP1208] | AA (a compound having 20 or more is denoted as AA) | A (a compound having 10 or more and less than 20 is denoted as A)
21.4 | 0.35 | CCO[C@@H]1C[C@H]2C(=O)NC3(CCC3)C(=O)N(C)[C@@H](C(CC)CC)C(=O)N(C)[C@H](C(=O)N(C)C)CC(=O)N(C)[C@@H](CC3CC3)C(=O)N[C@@H]([C@@H](C)CC)C(=O)N(C)CC(=O)N(C)[C@H]3C/C=C\CCN(C3=O)[C@@H](Cc3ccc(C(F)(F)F)cc3)C(=O)N(C)CC(=O)N[C@@H](CCc3ccc(Cl)c(Cl)c3)C(=O)N2C1 [PP1219] | AA (a compound having 20 or more is denoted as AA) | A (a compound having 10 or more and less than 20 is denoted as A)
17.8 | 0.48 | CCO[C@@H]1C[C@H]2C(=O)NC3(CCC3)C(=O)N(C)[C@@H](C(CC)CC)C(=O)N(C)[C@H](C(=O)N(C)C)CC(=O)N(C)[C@@H](CC(C)C)C(=O)N[C@@H]([C@@H](C)CC)C(=O)N(C)CC(=O)N(C)[C@H]3C/C=C\CCN(C3=O)[C@@H](Cc3ccc(C(F)(F)F)cc3)C(=O)N(C)CC(=O)N[C@@H](CCc3ccc(Cl)c(Cl)c3)C(=O)N2C1 [PP1217] | AA (a compound having 20 or more is denoted as AA) | A (a compound having 10 or more and less than 20 is denoted as A)
9.7 | 0.17 | CCO[C@@H]1C[C@H]2C(=O)NC3(CCC3)C(=O)N(C)[C@@H](C(CC)CC)C(=O)N(C)[C@H](C(=O)N(C)C)CC(=O)N(C)[C@@H](CC(C)C)C(=O)N[C@@H]([C@@H](C)CC)C(=O)N(C)CC(=O)N(C)[C@H]3C/C=C\CCN(C3=O)[C@@H](Cc3ccc(C(F)(F)F)cc3)C(=O)N(C)CC(=O)N[C@@H](CCc3cc(F)c(C(F)(F)F)c(F)c3)C(=O)N2C1 [PP1201] | AA (a compound having 20 or more is denoted as AA) | A (a compound having 10 or more and less than 20 is denoted as A)
